Source: ChEMBL document CHEMBL3102738, “Synthesis and biological evaluation of nitric oxide-donating analogues of sulindac for prostate cancer treatment” (Bioorg Med Chem, 2014)
Blank lines part the entries; values can stand above or below the compound they belong to. Activity calls are given as the source filed them. The calls are words filed in the database; no cut-off is given here.

How the values were obtained:
[1] = Induction of NO release in glutathione buffer at 400 uM after 1 hr by Griess assay relative to sulindac; assay type: physicochemical
[2] = Induction of NO release in glutathione buffer assessed as nitrite level at 400 uM after 1 hr by Griess assay (reference value: 3.3 +/- 1.2 uM); assay type: physicochemical
PC-3 [3] = test: Cytotoxicity against human PC3 cells after 72 hrs by crystal violet method; assay type: functional, cell-based; conditions: PC-3, 72 h
PC-3 [4] = test: Cytotoxicity against human PC3 cells at 50 nM after 72 hrs by crystal violet method; assay type: functional, cell-based
PC-3 [5] = test: Cytotoxicity against human PC3 cells assessed as cell viability at 50 uM after 72 hrs by crystal violet method (reference value: 95.69 +/- 7.66%); assay type: functional; conditions: PC-3, 72 h, read-out: Activity
PC-3 [6] = test: Cytotoxicity against human PC3 cells assessed as cell viability at 50 uM after 48 hrs by crystal violet method (reference value: 100.87 +/- 4.87%); assay type: functional; conditions: PC-3, 48 h, read-out: Activity
PC-3 [7] = test: Cytotoxicity against human PC3 cells assessed as cell viability at 50 uM after 24 hrs by crystal violet method (reference value: 99.09 +/- 9.87%); assay type: functional; conditions: PC-3, 24 h, read-out: Activity
PC-3 [8] = test: Cytotoxicity against human PC3 cells at 0.05 to 0.5 uM after 72 hrs by crystal violet method
PC-3 [9] = test: Cytotoxicity against human PC3 cells assessed as cell viability at 500 nM after 72 hrs by crystal violet method; assay type: functional; conditions: PC-3, 72 h, read-out: Activity

Activity [1]: 13.6%
Activity [2]: 54.4 µM
SMILES: CC1=C(CC(=O)OCCCCCCOc2no[n+]([O-])c2S(=O)(=O)c2ccccc2)c2cc(F)ccc2/C1=C\c1ccc([S+](C)[O-])cc1 (stereo unspecified)
IC50 (PC-3 [3]): 6.1 µM
Activity (PC-3 [4]): Active
viability at 50 µM (PC-3 [5]): 0%
viability at 50 µM (PC-3 [6]): 0%
viability at 50 µM (PC-3 [7]): 0%

SMILES: CC1=C(CC(=O)NCCOC(=O)/N=c2/c[n+](-c3ccccc3)[n-]o2)c2cc(F)ccc2/C1=C\c1ccc(S(C)(=O)=O)cc1
viability at 50 µM (PC-3 [5]): 37.3%
viability at 50 µM (PC-3 [6]): 45.9%
viability at 50 µM (PC-3 [7]): 76.5%
Activity (PC-3 [8]): inactive

Activity [1]: 10.3%
Activity [2]: 41.1 µM
SMILES: CSc1ccc(/C=C2/C(C)=C(CC(=O)OCCOc3no[n+]([O-])c3S(=O)(=O)c3ccccc3)c3cc(F)ccc32)cc1
IC50 (PC-3 [3]): 41.4 µM
viability at 0.5 µM (PC-3 [9]): 11.9%
viability at 50 µM (PC-3 [5]): 0%
viability at 50 µM (PC-3 [6]): 0%
viability at 50 µM (PC-3 [7]): 0%

SMILES: CC1=C(CC(=O)NCCNC(=O)/N=c2/c[n+](-c3ccccc3)[n-]o2)c2cc(F)ccc2/C1=C\c1ccc(S(C)(=O)=O)cc1
viability at 50 µM (PC-3 [5]): 55.5%
viability at 50 µM (PC-3 [6]): 58.2%
viability at 50 µM (PC-3 [7]): 86.1%
Activity (PC-3 [8]): inactive

SMILES: CSc1ccc(/C=C2/C(C)=C(CC(=O)NCCOC(=O)/N=c3/c[n+](-c4ccccc4)[n-]o3)c3cc(F)ccc32)cc1
viability at 50 µM (PC-3 [5]): 17.7%
viability at 50 µM (PC-3 [6]): 27.1%
viability at 50 µM (PC-3 [7]): 57.6%
Activity (PC-3 [8]): inactive

SMILES: CC1=C(CC(=O)/N=c2\c[n+](-c3ccccc3)[n-]o2)c2cc(F)ccc2/C1=C\c1ccc([S+](C)[O-])cc1 (stereo unspecified)
viability at 50 µM (PC-3 [5]): 20.6%
viability at 50 µM (PC-3 [6]): 29.8%
viability at 50 µM (PC-3 [7]): 64.6%
Activity (PC-3 [8]): inactive

SMILES: CC1=C(CC(=O)OCCOCCOc2no[n+]([O-])c2S(=O)(=O)c2ccccc2)c2cc(F)ccc2/C1=C\c1ccc([S+](C)[O-])cc1 (stereo unspecified)
IC50 (PC-3 [3]): 26 µM
viability at 50 µM (PC-3 [5]): 0%
viability at 50 µM (PC-3 [6]): 0%
viability at 50 µM (PC-3 [7]): 0%

Activity [1]: 8.2%
Activity [2]: 33 µM
SMILES: CSc1ccc(/C=C2/C(C)=C(CC(=O)OCCCCOc3no[n+]([O-])c3S(=O)(=O)c3ccccc3)c3cc(F)ccc32)cc1
IC50 (PC-3 [3]): 40.3 µM
viability at 0.5 µM (PC-3 [9]): 9.17%
viability at 50 µM (PC-3 [5]): 0%
viability at 50 µM (PC-3 [6]): 0%
viability at 50 µM (PC-3 [7]): 0%

SMILES: CSc1ccc(/C=C2/C(C)=C(CC(=O)OCCCOc3no[n+]([O-])c3S(=O)(=O)c3ccccc3)c3cc(F)ccc32)cc1
IC50 (PC-3 [3]): 48.6 µM
viability at 50 µM (PC-3 [5]): 15.7%
viability at 50 µM (PC-3 [6]): 21.2%
viability at 50 µM (PC-3 [7]): 34.9%

Activity [1]: < 1%
Activity [2]: 1.1 µM
SMILES: CC1=C(CC(=O)O)c2cc(F)ccc2/C1=C\c1ccc([S+](C)[O-])cc1 (stereo unspecified) [SULINDAC]
viability at 50 µM (PC-3 [5]): 89.3%
viability at 50 µM (PC-3 [6]): 101%
viability at 50 µM (PC-3 [7]): 87.3%

SMILES: CC1=C(CC(=O)OCCOc2no[n+]([O-])c2S(=O)(=O)c2ccccc2)c2cc(F)ccc2/C1=C\c1ccc([S+](C)[O-])cc1 (stereo unspecified)
IC50 (PC-3 [3]): 27.9 µM
viability at 50 µM (PC-3 [5]): 0%
viability at 50 µM (PC-3 [6]): 0%
viability at 50 µM (PC-3 [7]): 0%

Activity [1]: 12.8%
Activity [2]: 51.1 µM
SMILES: CC1=C(CC(=O)OC/C=C\COc2no[n+]([O-])c2S(=O)(=O)c2ccccc2)c2cc(F)ccc2/C1=C\c1ccc([S+](C)[O-])cc1 (stereo unspecified)
IC50 (PC-3 [3]): 12.1 µM
Activity (PC-3 [4]): Active
viability at 50 µM (PC-3 [5]): 0%
viability at 50 µM (PC-3 [6]): 0%
viability at 50 µM (PC-3 [7]): 0%
